Measured values reported in the NIST ThermoML archive (doi:10.1021/acs.jced.8b00229).
± gives the expanded uncertainty stated by the source.

Conditions: Liquid, Vibrating tube method

C=CCCCC [hex-1-ene]
Conditions	mass density [kg/m3]
283.57 K, 1000 kPa	683.2 ± 2
283.57 K, 3000 kPa	685.2 ± 2
283.57 K, 5000 kPa	687.2 ± 2
283.57 K, 10000 kPa	691.9 ± 2
283.57 K, 15000 kPa	696.4 ± 2
283.57 K, 20000 kPa	700.6 ± 2
283.57 K, 25000 kPa	704.7 ± 2.1
283.57 K, 30000 kPa	708.5 ± 2.1
283.57 K, 35000 kPa	712.4 ± 2.1
283.57 K, 45000 kPa	719.4 ± 2.1
283.58 K, 500 kPa	682.3 ± 2
283.58 K, 40000 kPa	714.7 ± 2.1
283.58 K, 50000 kPa	722.4 ± 2.1
283.58 K, 55000 kPa	725.5 ± 2.1
283.58 K, 60000 kPa	728.6 ± 2.2
283.58 K, 70000 kPa	734.4 ± 2.2
283.58 K, 80000 kPa	739.9 ± 2.2
283.59 K, 100 kPa	682.2 ± 2
283.59 K, 90000 kPa	745.2 ± 2.3
283.59 K, 100000 kPa	750.1 ± 2.3
293.5 K, 1000 kPa	674.1 ± 2
293.51 K, 100 kPa	673.1 ± 2
293.51 K, 500 kPa	673.5 ± 2
293.51 K, 3000 kPa	676.3 ± 2
293.51 K, 5000 kPa	678.4 ± 2
293.51 K, 10000 kPa	683.5 ± 2
293.51 K, 20000 kPa	692.8 ± 2
293.51 K, 25000 kPa	697 ± 2.1
293.51 K, 30000 kPa	701.1 ± 2.1
293.51 K, 35000 kPa	704.9 ± 2.1
293.51 K, 55000 kPa	718.9 ± 2.1
293.51 K, 60000 kPa	722.1 ± 2.2
293.51 K, 70000 kPa	728.2 ± 2.2
293.51 K, 80000 kPa	733.8 ± 2.2
293.51 K, 90000 kPa	739.3 ± 2.3
293.51 K, 100000 kPa	744.4 ± 2.3
293.52 K, 15000 kPa	688.3 ± 2
293.52 K, 40000 kPa	708.6 ± 2.1
293.52 K, 45000 kPa	712.5 ± 2.1
293.52 K, 50000 kPa	715.6 ± 2.1
303.4 K, 500 kPa	664.1 ± 2
303.4 K, 1000 kPa	664.6 ± 2
303.41 K, 100 kPa	663.5 ± 2
303.41 K, 3000 kPa	667 ± 2
303.41 K, 5000 kPa	669.3 ± 2
303.41 K, 10000 kPa	674.8 ± 2
303.41 K, 15000 kPa	679.9 ± 2
303.41 K, 20000 kPa	684.7 ± 2.1
303.41 K, 25000 kPa	689.2 ± 2.1
303.42 K, 30000 kPa	693.5 ± 2.1
303.42 K, 35000 kPa	698.2 ± 2.1
303.42 K, 40000 kPa	701.5 ± 2.1
303.42 K, 45000 kPa	705.8 ± 2.1
303.42 K, 50000 kPa	708.8 ± 2.1
303.42 K, 55000 kPa	712.8 ± 2.1
303.42 K, 60000 kPa	715.5 ± 2.2
303.42 K, 70000 kPa	721.8 ± 2.2
303.42 K, 80000 kPa	727.7 ± 2.2
303.42 K, 90000 kPa	733.2 ± 2.3
303.42 K, 100000 kPa	738.5 ± 2.3
313.34 K, 100 kPa	654.1 ± 2
313.34 K, 20000 kPa	676.6 ± 2.1
313.35 K, 500 kPa	654.2 ± 2
313.35 K, 1000 kPa	655.3 ± 2
313.35 K, 3000 kPa	657.9 ± 2
313.35 K, 5000 kPa	660.3 ± 2
313.35 K, 10000 kPa	666.1 ± 2
313.35 K, 15000 kPa	671.6 ± 2
313.35 K, 25000 kPa	681.4 ± 2.1
313.35 K, 30000 kPa	685.9 ± 2.1
313.35 K, 35000 kPa	690.2 ± 2.1
313.35 K, 40000 kPa	694.3 ± 2.1
313.35 K, 45000 kPa	698.3 ± 2.1
313.35 K, 50000 kPa	701.9 ± 2.1
313.35 K, 55000 kPa	705.7 ± 2.2
313.35 K, 60000 kPa	709 ± 2.2
313.35 K, 80000 kPa	721.9 ± 2.2
313.35 K, 90000 kPa	727.6 ± 2.3
313.35 K, 100000 kPa	733.2 ± 2.3
313.36 K, 70000 kPa	715.9 ± 2.2
323.18 K, 100 kPa	644.5 ± 2
323.18 K, 60000 kPa	702.5 ± 2.2
323.19 K, 500 kPa	644.9 ± 2
323.19 K, 1000 kPa	645.8 ± 2
323.19 K, 3000 kPa	648.6 ± 2
323.19 K, 5000 kPa	651.3 ± 2
323.19 K, 10000 kPa	657.6 ± 2
323.19 K, 50000 kPa	695.2 ± 2.1
323.19 K, 55000 kPa	699.3 ± 2.2
323.2 K, 15000 kPa	663.4 ± 2
323.2 K, 20000 kPa	668.8 ± 2.1
323.2 K, 30000 kPa	678.6 ± 2.1
323.2 K, 35000 kPa	683.4 ± 2.1
323.2 K, 40000 kPa	687.3 ± 2.1
323.2 K, 70000 kPa	709.4 ± 2.2
323.2 K, 80000 kPa	715.7 ± 2.3
323.2 K, 90000 kPa	721.6 ± 2.3
323.2 K, 100000 kPa	727.2 ± 2.3
323.21 K, 25000 kPa	673.8 ± 2.1
323.21 K, 45000 kPa	691.8 ± 2.1
333.08 K, 500 kPa	635.3 ± 2
333.08 K, 1000 kPa	636 ± 2
333.08 K, 3000 kPa	639.1 ± 2
333.08 K, 5000 kPa	642 ± 2
333.08 K, 10000 kPa	648.8 ± 2
333.09 K, 15000 kPa	655 ± 2
333.09 K, 20000 kPa	660.8 ± 2.1
333.09 K, 25000 kPa	666.1 ± 2.1
333.09 K, 30000 kPa	671.1 ± 2.1
333.09 K, 35000 kPa	676.4 ± 2.1
333.09 K, 40000 kPa	680.2 ± 2.1
333.09 K, 45000 kPa	685.1 ± 2.1
333.09 K, 50000 kPa	688.5 ± 2.1
333.09 K, 55000 kPa	693 ± 2.2
333.09 K, 60000 kPa	696.1 ± 2.2
333.09 K, 70000 kPa	703.3 ± 2.2
333.09 K, 80000 kPa	709.8 ± 2.3
333.09 K, 90000 kPa	715.9 ± 2.3
333.09 K, 100000 kPa	721.7 ± 2.3
342.96 K, 500 kPa	625.6 ± 2
342.96 K, 1000 kPa	626.4 ± 2
342.97 K, 3000 kPa	629.8 ± 2
342.97 K, 5000 kPa	633 ± 2
342.97 K, 10000 kPa	640.3 ± 2
342.97 K, 15000 kPa	647 ± 2
342.97 K, 20000 kPa	653.2 ± 2.1
342.97 K, 25000 kPa	658.8 ± 2.1
342.97 K, 30000 kPa	664.1 ± 2.1
342.97 K, 35000 kPa	669.6 ± 2.1
342.97 K, 40000 kPa	673.8 ± 2.1
342.97 K, 45000 kPa	678.8 ± 2.1
342.97 K, 50000 kPa	682.3 ± 2.2
342.97 K, 55000 kPa	687 ± 2.2
342.97 K, 60000 kPa	690.4 ± 2.2
342.97 K, 70000 kPa	697.6 ± 2.2
342.97 K, 80000 kPa	704.3 ± 2.3
342.97 K, 90000 kPa	710.7 ± 2.3
342.97 K, 100000 kPa	716.6 ± 2.3
352.85 K, 500 kPa	615.7 ± 2
352.85 K, 1000 kPa	617 ± 2
352.85 K, 3000 kPa	620.7 ± 2
352.85 K, 5000 kPa	624.2 ± 2
352.85 K, 15000 kPa	639.4 ± 2
352.86 K, 10000 kPa	632.2 ± 2
352.86 K, 20000 kPa	645.7 ± 2.1
352.86 K, 25000 kPa	651.7 ± 2.1
352.86 K, 30000 kPa	657.4 ± 2.1
352.86 K, 35000 kPa	662.8 ± 2.1
352.86 K, 40000 kPa	667.4 ± 2.1
352.86 K, 45000 kPa	672.4 ± 2.1
352.86 K, 50000 kPa	676.6 ± 2.2
352.86 K, 55000 kPa	680.9 ± 2.2
352.86 K, 60000 kPa	684.8 ± 2.2
352.86 K, 70000 kPa	692.4 ± 2.2
352.86 K, 80000 kPa	699.4 ± 2.3
352.86 K, 90000 kPa	705.9 ± 2.3
352.86 K, 100000 kPa	712 ± 2.4
362.7 K, 500 kPa	604.1 ± 2
362.7 K, 1000 kPa	605.5 ± 2
362.7 K, 100000 kPa	705.7 ± 2.4
362.71 K, 3000 kPa	609.5 ± 2
362.71 K, 5000 kPa	613.3 ± 2
362.71 K, 10000 kPa	622 ± 2
362.71 K, 15000 kPa	629.7 ± 2
362.71 K, 20000 kPa	636.7 ± 2.1
362.71 K, 25000 kPa	643 ± 2.1
362.71 K, 30000 kPa	648.9 ± 2.1
362.71 K, 35000 kPa	654.7 ± 2.1
362.71 K, 40000 kPa	659.6 ± 2.1
362.71 K, 45000 kPa	664.8 ± 2.1
362.71 K, 50000 kPa	669 ± 2.2
362.71 K, 55000 kPa	673.7 ± 2.2
362.71 K, 60000 kPa	677.6 ± 2.2
362.71 K, 70000 kPa	685.4 ± 2.2
362.71 K, 80000 kPa	692.6 ± 2.3
362.71 K, 90000 kPa	699.3 ± 2.3
